US7772180B2, “Hepatitis C virus inhibitors” (Bristol-Myers Squibb Company, priority 2006, dated 2010)
Where two headings read alike, the source gives them in different places.

Key:
[1] = system: HCV replicon (strain 1b) in HUH-7 cells; assay: HCV replicon FRET assay; assay type: cell-based, Hepatitis C virus
[2] = biological target: T1, HCV NS3/4A protease complex, BMS strain (UniProt P27958, species not given/STRAIN_BMS); assay: FRET peptide assay to monitor HCV NS3/4A proteolytic activity (BMS strain); assay type: biochemical, Hepatitis C virus (genotype 1a)
T1 construct: other: NS3/4A BMS strain; activity range class; numeric values, unit not given; said of H77 and J4L6S; fused on or other part: A three-lysine solubilising tail at the C-terminus of NS4A; A His tag is implied by the pET21b vector and Ni-NTA purification; Both are printed for the H77 and J4L6S constructs and apply to BMS by inference
Method in brief: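 Inhibition measured by real-time fluorescence increase as the protease cleaves RET S1 FRET depsipeptide (2 μM final). Enzyme: >90% pure BMS-strain (1a) NS3/4A at 2-3 nM final, or 300 pM with 50 μg/ml BSA for potent compounds. Buffer: 50 mM HEPES pH 7.5, 0.15 M NaCl, 0.1% Triton, 15% glycerol, 10 mM βME.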

[3] = Hepatitis C virus, Huh-7, read-out: HCV Pro Replicon (EC50), HCV replicon cell assay, activity range class
[4] = read-out: HCV Protease (IC50); NS3/4A BMS strain; activity range class
[5] = Hepatitis C virus, Huh-7, read-out: HCV Pro Replicon (EC50), HCV replicon cell assay, numeric values, unit inferred
[6] = read-out: HCV Protease (IC50); NS3/4A BMS strain; numeric values, unit inferred

T1 sequence (P27958 1027-1657, change not shown, one chain of several): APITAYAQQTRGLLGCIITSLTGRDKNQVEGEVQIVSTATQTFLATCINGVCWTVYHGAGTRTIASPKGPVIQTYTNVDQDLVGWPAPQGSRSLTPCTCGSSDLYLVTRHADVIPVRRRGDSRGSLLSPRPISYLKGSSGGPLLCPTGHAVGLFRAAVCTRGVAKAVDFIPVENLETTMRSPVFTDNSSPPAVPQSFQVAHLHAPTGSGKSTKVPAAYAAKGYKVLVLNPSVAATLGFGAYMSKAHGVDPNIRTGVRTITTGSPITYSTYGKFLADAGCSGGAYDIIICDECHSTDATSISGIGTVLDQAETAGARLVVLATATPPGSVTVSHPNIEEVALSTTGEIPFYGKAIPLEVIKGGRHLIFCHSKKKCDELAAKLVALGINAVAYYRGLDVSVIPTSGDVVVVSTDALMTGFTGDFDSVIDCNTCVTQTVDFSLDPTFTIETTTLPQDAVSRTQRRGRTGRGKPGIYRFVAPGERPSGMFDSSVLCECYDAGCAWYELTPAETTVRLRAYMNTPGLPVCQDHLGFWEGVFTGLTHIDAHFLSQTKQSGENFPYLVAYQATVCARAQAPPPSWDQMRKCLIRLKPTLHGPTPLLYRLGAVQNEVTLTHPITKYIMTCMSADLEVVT

Compound | EC50 [1, 3] | IC50 [2, 4] | also measured
C=C[C@@H]1C[C@]1(NC(=O)[C@@H]1C[C@@H](Oc2nccc3cc(OC)ccc23)CN1C(=O)[C@@H](Nc1cc(C)cc(C)n1)C(C)(C)C)C(=O)NS(=O)(=O)C1CC1 [14 first isomer, N-(4,6-dimethyl-2-pyridinyl)-3-methyl-L-valyl-(4R)—N-((1R,2S)-1-((cyclopropylsulfonyl)carbamoyl)-2-vinylcyclopropyl)-4-((6-methoxy-1-isoquinolinyl)oxy)-L-prolinamide] | 3 to 100 nM | 0.6 to 20 nM | –
C=C[C@@H]1C[C@]1(NC(=O)[C@@H]1C[C@@H](Oc2ncc(OC)c3ccc(Cl)cc23)CN1C(=O)[C@H](Nc1ccc(S(N)(=O)=O)cc1)C(C)(C)C)C(=O)NS(=O)(=O)C1CC1 [Compound 215B, 3-methyl-N-(4-sulfamoylphenyl)-D-valyl-(4R)-4-((7-chloro-4-methoxy-1-isoquinolinyl)oxy)-N-((1R,2S)-1-((cyclopropylsulfonyl)carbamoyl)-2-vinylcyclopropyl)-L-prolinamide] | – | – | EC50 [1, 5]: 5490 nM; IC50 [2, 6]: 830 nM
C=C[C@@H]1C[C@]1(NC(=O)[C@@H]1C[C@@H](Oc2ncc(OC)c3ccc(Cl)cc23)CN1C(=O)C(C)Nc1n[s+]([O-])nc1OCC)C(=O)NS(=O)(=O)C1CC1 (stereo partly drawn) [Compound 237] | > 1000 nM | > 200 nM | –
C=C[C@@H]1C[C@]1(NC(=O)[C@@H]1C[C@@H](Oc2nccc3cc(OC)ccc23)CN1C(=O)[C@@H](Nc1ccccn1)C(C)(C)C)C(=O)NS(=O)(=O)C1CC1 [12 first isomer, 3-methyl-N-2-pyridinyl-L-valyl-(4R)—N-((1R,2S)-1-((cyclopropylsulfonyl)carbamoyl)-2-vinylcyclopropyl)-4-((6-methoxy-1-isoquinolinyl)oxy)-L-prolinamide] | 3 to 100 nM | 0.6 to 20 nM | –
C=C[C@@H]1C[C@]1(NC(=O)[C@@H]1C[C@@H](Oc2ncc(OC)c3ccc(Cl)cc23)CN1C(=O)C(Nc1cccc(OC)c1)C(C)(C)C)C(=O)NS(=O)(=O)C1CC1 (single isomer, unassigned) [Compound 201B] | 3 to 100 nM | 20 to 200 nM | –
C=C[C@@H]1C[C@]1(NC(=O)[C@@H]1C[C@@H](Oc2ncc(OC)c3ccc(Cl)cc23)CN1C(=O)[C@H](Nc1cccc(S(=O)(=O)NC(C)(C)C)c1)C(C)(C)C)C(=O)NS(=O)(=O)C1CC1 [206 second isomer, N-(3-(tert-butylsulfamoyl)phenyl)-3-methyl-D-valyl-(4R)-4-((7-chloro-4-methoxy-1-isoquinolinyl)oxy)-N-((1R,2S)-1-((cyclopropylsulfonyl)carbamoyl)-2-vinylcyclopropyl)-L-prolinamide] | > 1000 nM | > 200 nM | –
C=C[C@@H]1C[C@]1(NC(=O)[C@@H]1C[C@@H](Oc2nccc3cc(OC)ccc23)CN1C(=O)C(Nc1cc(C(F)(F)F)ccn1)C(C)C)C(=O)NS(=O)(=O)C1CC1 (single isomer, unassigned) [Compound 9] | 3 to 100 nM | 0.6 to 20 nM | –
C=C[C@@H]1C[C@]1(NC(=O)[C@@H]1C[C@@H](Oc2ncc(OC)c3ccc(Cl)cc23)CN1C(=O)[C@@H](Nc1ccc(C(=O)OC(C)(C)C)cc1)C(C)(C)C)C(=O)NS(=O)(=O)C1CC1 [204 first isomer, tert-butyl 4-((S)-1-((2S,4R)-4-(7-chloro-4-methoxyisoquinolin-1-yloxy)-2-((1R,2S)-1-(cyclopropylsulfonylcarbamoyl)-2-vinylcyclopropylcarbamoyl)pyrrolidin-1-yl)-3,3-dimethyl-1-oxobutan-2-ylamino)benzoate] | – | 0.6 to 20 nM | EC50 ([1]; read-out: HCV Pro Replicon (EC50), HCV replicon cell assay, activity range class): 3 to 100 nM
C=C[C@@H]1C[C@]1(NC(=O)[C@@H]1C[C@@H](Oc2nc(N(C)C)cc3c(OC)cccc23)CN1C(=O)C(Nc1cccc(C)n1)C(C)(C)C)C(=O)NS(=O)(=O)C1CC1 (single isomer, unassigned) [Compound 38B] | – | – | EC50 [1, 5]: 7710 nM; IC50 [2, 6]: 5000 nM
C=C[C@@H]1C[C@]1(NC(=O)[C@@H]1C[C@@H](Oc2nccc3cc(OC)ccc23)CN1C(=O)C(Nc1ccc(OC)nc1)C(C)(C)C)C(=O)NS(=O)(=O)C1CC1 (single isomer, unassigned) [407 first isomer] | 100 to 1000 nM | 0.6 to 20 nM | –
C=C[C@@H]1C[C@]1(NC(=O)[C@@H]1C[C@@H](Oc2ncc(OC)c3ccc(Cl)cc23)CN1C(=O)[C@@H](Nc1ccc(C(=O)NC(C)(C)c2ccccc2)cc1)C(C)(C)C)C(=O)NS(=O)(=O)C1CC1 [Compound 222A, 3-methyl-N-(4-((1-methyl-1-phenylethyl)carbamoyl)phenyl)-L-valyl-(4R)-4-((7-chloro-4-methoxy-1-isoquinolinyl)oxy)-N-((1R2S)-1-((cyclopropylsulfonl)carbamoyl)-2-vinylcyclopropyl)-L-prolinamide] | – | – | EC50 ([1]; HCV replicon cell assay, activity range class, read-out: HCV Pro Replicon (EC50)): 3 to 100 nM; IC50 ([2]; NS3/4A BMS strain; activity range class; read-out: HCV Protease (IC50)): 0.6 to 20 nM
C=C[C@@H]1C[C@]1(NC(=O)[C@@H]1C[C@@H](Oc2ncc(OC)c3ccc(Cl)cc23)CN1C(=O)[C@H](Nc1ccc(C#N)cc1)C(C)(C)C)C(=O)NS(=O)(=O)C1CC1 [205 second isomer, N-(4-cyanophenyl)-3-methyl-D-valyl-(4R)-4-((7-chloro-4-methoxy-1-isoquinolinyl)oxy)-N-((1R,2S)-1-((cyclopropylsulfonyl)carbamoyl)-2-vinylcyclopropyl)-L-prolinamide] | 3 to 100 nM | > 200 nM | –
C=C[C@@H]1C[C@]1(NC(=O)[C@@H]1C[C@@H](Oc2ncc(OC)c3ccc(Cl)cc23)CN1C(=O)C(Nc1cc(Cl)cc(Cl)n1)C(C)(C)C)C(=O)NS(=O)(=O)C1CC1 (single isomer, unassigned) [Compound 32A] | – | – | EC50 [1, 5]: 3.59 nM; IC50 [2, 6]: 1 nM
C=C[C@@H]1C[C@]1(NC(=O)[C@@H]1C[C@@H](Oc2nc(OC)cc3cc(OC)ccc23)CN1C(=O)C(Nc1cc(C)cc(C)n1)C(C)C)C(=O)NS(=O)(=O)C1CC1 (stereo partly drawn) [Compound 21, N-(4,6-dimethyl-2-pyridinyl)valyl-(4R)—N-((1R,2S)-1-((cyclopropylsulfonyl)carbamoyl)-2-vinylcyclopropyl)-4-((3,6-dimethoxy-1-isoquinolinyl)oxy)-L-prolinamide] | 3 to 100 nM | 0.6 to 20 nM | –
C=C[C@@H]1C[C@]1(NC(=O)[C@@H]1C[C@@H](Oc2nc(N(C)C)cc3c(OC)cccc23)CN1C(=O)C(Nc1cccc(C)n1)C(C)(C)C)C(=O)NS(=O)(=O)C1CC1 (single isomer, unassigned) [Compound 38A] | 3 to 100 nM | 0.6 to 20 nM | –
C=C[C@@H]1C[C@]1(NC(=O)[C@@H]1C[C@@H](Oc2ncc(OC)c3ccc(Cl)cc23)CN1C(=O)[C@H](Nc1cccc(S(=O)(=O)NC)c1)C(C)(C)C)C(=O)NS(=O)(=O)C1CC1 [227 second isomer, 3-methyl-N-(3-(methylsulfamoyl)phenyl)-D-valyl-(4R)-4-((7-chloro-4-methoxy-1-isoquinolinyl)oxy)-N-((1R,2S)-1-((cyclopropylsulfonyl)carbamoyl)-2-vinylcyclopropyl)-L-prolinamide] | > 1000 nM | > 200 nM | –
C=C[C@@H]1C[C@]1(NC(=O)[C@@H]1C[C@@H](Oc2nccc3cc(OC)ccc23)CN1C(=O)[C@H](Nc1cccnc1)C(C)(C)C)C(=O)NS(=O)(=O)C1CC1 [Compound 13B, 3-methyl-N-3-pyridinyl-D-valyl-(4R)—N-((1R,2S)-1-((cyclopropylsulfonyl)carbamoyl)-2-vinylcyclopropyl)-4-((6-methoxy-1-isoquinolinyl)oxy)-L-prolinamide] | – | – | EC50 [1, 5]: 5740 nM; IC50 [2, 6]: 1200 nM
C=C[C@@H]1C[C@]1(NC(=O)[C@@H]1C[C@@H](Oc2nccc3cc(OC)ccc23)CN1C(=O)C(Nc1cc(C)ccn1)C(C)C)C(=O)NS(=O)(=O)C1CC1 (single isomer, unassigned) [Compound 10] | 3 to 100 nM | 0.6 to 20 nM | –
C=C[C@@H]1C[C@]1(NC(=O)[C@@H]1C[C@@H](Oc2ncc(OC)c3ccc(Cl)cc23)CN1C(=O)C(Nc1cccc(C#N)c1)C(C)(C)C)C(=O)NS(=O)(=O)C1CC1 (stereo partly drawn) [Compound 203A] | – | – | EC50 [1, 5]: 1.54 nM; IC50 [2, 6]: 4 nM
C=C[C@@H]1C[C@]1(NC(=O)[C@@H]1C[C@@H](Oc2ncc(OC)c3ccc(Cl)cc23)CN1C(=O)[C@@H](Nc1cccc(S(=O)(=O)NC)c1)C(C)(C)C)C(=O)NS(=O)(=O)C1CC1 [227 first isomer, 3-methyl-N-(3-(methylsulfamoyl)phenyl)-L-valyl-(4R)-4-((7-chloro-4-methoxy-1-isoquinolinyl)oxy)-N-((1R,2S)-1-((cyclopropylsulfonyl)carbamoyl)-2-vinylcyclopropyl)-L-prolinamide] | 3 to 100 nM | 0.6 to 20 nM | –
C=C[C@@H]1C[C@]1(NC(=O)[C@@H]1C[C@@H](Oc2nccc3cc(OC)ccc23)CN1C(=O)[C@H](Nc1cc(C)cc(C)n1)C(C)(C)C)C(=O)NS(=O)(=O)C1CC1 [14 second isomer, N-(4,6-dimethyl-2-pyridinyl)-3-methyl-D-valyl-(4R)—N-((1R,2S)-1-((cyclopropylsulfonyl)carbamoyl)-2-vinylcyclopropyl)-4-((6-methoxy-1-isoquinolinyl)oxy)-L-prolinamide] | 100 to 1000 nM | > 200 nM | –
